Reference: patent US20250346575A1, “ISOINDOLINONE DERIVATIVE HAVING GLUTARIMIDE MOTHER NUCLEUS, AND USE THEREOF” (KOREA RESEARCH INSTITUTE OF CHEMICAL TECHNOLOGY, priority 2021, published 2025)

Legend:
Cancer cells (KG-1) = experiment: Cytotoxicity assay, WST-1, KG-1; format: cell-based; settings: for IC50: Homo sapiens, KG-1 cells, 72 hours, WST-1
Description: To evaluate the effect of the compounds of the present disclosure on cancer cells, a cytotoxicity assay was conducted as follows.
Cancer cells (KG-1) were seeded at a concentration of 10,000 cells per well into a 96-well plate. Then, the cells were treated with predetermined concentrations of compounds of the Examples and comparative substances (comparative compounds 1, 2, 3). After 72 hours, the cells were incubated with WST-1 reagent for one hour. Then, absorbance was measured at 450 nm using a spectramax spectrophotometer to assess the degree of cancer cell apoptosis. The IC50 (μM) values were calculated using the measured values with the GraphPad Prism program and the measurements are summarized in Table 1.

GSPT1 protein = target: T1, GSPT1 protein (Homo sapiens, UniProt P15170+Q96SW2); experiment: Substrate protein degradation activity of CRBN (Western blot); format: cell-based; settings: KG-1 cell lines, 6 hours, FIG. 1
T1 construct: endogenous in cells; host or cells: KG-1 cells
T1 sequence (P15170 whole entry): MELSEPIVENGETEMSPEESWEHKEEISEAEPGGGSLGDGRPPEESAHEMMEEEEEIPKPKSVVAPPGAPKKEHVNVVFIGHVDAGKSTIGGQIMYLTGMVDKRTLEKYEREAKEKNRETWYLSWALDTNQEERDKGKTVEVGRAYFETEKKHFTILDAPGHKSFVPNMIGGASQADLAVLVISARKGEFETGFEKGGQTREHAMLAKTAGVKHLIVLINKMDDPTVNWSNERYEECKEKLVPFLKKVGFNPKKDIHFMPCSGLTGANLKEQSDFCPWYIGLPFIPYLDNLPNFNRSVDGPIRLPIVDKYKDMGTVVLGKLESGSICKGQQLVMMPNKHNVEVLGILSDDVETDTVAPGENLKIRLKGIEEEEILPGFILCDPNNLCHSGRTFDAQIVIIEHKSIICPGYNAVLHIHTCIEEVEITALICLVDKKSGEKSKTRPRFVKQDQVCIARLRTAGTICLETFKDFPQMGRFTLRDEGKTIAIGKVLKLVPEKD
T1 sequence (Q96SW2 whole entry): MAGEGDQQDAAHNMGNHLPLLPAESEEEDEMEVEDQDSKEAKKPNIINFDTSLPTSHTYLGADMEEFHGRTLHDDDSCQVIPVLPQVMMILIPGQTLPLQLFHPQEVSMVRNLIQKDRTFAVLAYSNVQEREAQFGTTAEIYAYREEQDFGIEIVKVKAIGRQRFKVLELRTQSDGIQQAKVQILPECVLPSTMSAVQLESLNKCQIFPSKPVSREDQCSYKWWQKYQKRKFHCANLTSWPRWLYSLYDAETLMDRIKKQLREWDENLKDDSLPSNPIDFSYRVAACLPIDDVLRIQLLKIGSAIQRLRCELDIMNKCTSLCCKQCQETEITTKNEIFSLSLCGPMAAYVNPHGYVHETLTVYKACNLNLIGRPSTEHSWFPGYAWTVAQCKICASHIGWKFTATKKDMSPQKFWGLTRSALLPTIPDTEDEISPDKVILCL
T1 sequence (Q16531 whole entry partner): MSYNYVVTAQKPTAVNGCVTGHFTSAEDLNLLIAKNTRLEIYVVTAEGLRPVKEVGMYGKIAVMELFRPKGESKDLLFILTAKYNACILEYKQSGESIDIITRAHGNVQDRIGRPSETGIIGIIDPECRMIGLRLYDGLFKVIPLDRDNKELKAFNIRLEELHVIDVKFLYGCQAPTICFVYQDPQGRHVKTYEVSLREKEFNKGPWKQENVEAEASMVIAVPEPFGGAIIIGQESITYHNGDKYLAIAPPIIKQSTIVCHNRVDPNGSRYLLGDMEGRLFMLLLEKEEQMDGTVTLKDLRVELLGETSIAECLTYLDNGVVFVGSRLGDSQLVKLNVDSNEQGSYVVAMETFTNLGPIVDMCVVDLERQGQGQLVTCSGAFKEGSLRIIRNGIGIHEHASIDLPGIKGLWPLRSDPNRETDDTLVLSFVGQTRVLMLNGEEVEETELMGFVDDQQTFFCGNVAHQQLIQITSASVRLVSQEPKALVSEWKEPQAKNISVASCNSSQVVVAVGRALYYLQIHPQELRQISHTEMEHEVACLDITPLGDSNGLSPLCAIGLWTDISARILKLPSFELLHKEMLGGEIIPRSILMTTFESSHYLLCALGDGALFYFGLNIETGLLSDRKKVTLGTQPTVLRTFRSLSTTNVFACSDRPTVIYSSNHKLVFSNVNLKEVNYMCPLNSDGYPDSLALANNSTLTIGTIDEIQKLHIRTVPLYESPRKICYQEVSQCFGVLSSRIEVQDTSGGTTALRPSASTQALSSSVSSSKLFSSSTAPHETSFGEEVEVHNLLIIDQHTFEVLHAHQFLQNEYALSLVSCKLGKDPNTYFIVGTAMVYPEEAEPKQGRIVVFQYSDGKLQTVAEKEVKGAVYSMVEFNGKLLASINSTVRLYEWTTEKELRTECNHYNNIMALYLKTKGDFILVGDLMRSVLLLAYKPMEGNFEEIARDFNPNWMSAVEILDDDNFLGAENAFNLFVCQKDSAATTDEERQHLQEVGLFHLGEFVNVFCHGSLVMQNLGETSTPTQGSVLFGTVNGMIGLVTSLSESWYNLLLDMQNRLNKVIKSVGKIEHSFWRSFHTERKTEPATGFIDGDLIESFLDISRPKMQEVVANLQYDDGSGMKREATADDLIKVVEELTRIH
Source text: Examination was made to determine whether the compounds of the present disclosure bind to cereblon (CRBN) and inhibit the function of CRBN. In this regard, the compounds were investigated for degradation activity for Ikaros (IKZF1) protein (Chamberlain, P. P. et al., 2014) or GSPT1 protein (Matyskiela, M. E. et al., 2016) which CRBN protein degrades when binding to thalidomide and analogs thereof.
In order to assay the compounds according to the present disclosure for degradation activity for Ikaros (IKZF1) protein or GSPT1 protein, experiments were carried out as follows.
KG-1 cells were seeded at a density of 5×10^5 cells per well into 12-well plates, and each compound was added at predetermined concentration to the wells. After 6 hours, cell lysates were collected using TBSN buffer. The degradation activity of Ikaros protein was assessed using an antibody against Ikaros protein, and the degradation activity of GSPT1 protein was evaluated using an antibody against GSPT1 protein through Western blot analysis. In this regard, equal amounts of protein were loaded into each well of a 4-15% gradient gel, and after electrophoresis, proteins were transferred to a PVDF membrane. Each protein was then bound with primary antibodies, followed by the attachment of HRP-conjugated secondary antibodies, and developed using an HRP substrate.

Row | SMILES | IC50 (Cancer cells (KG-1)) [µM] | also measured
1 | O=C1CCC(N2Cc3cc(CNC(=O)c4noc5cc(Cl)ccc45)ccc3C2=O)C(=O)N1 (centres unmarked) [Compound 10, 6-Chloro-N-((2-(2,6-dioxopiperidin-3-yl)-1-oxoisoindolin-5-yl)methyl)benzo[d]isoxazole-3-carboxamide] | 0.0001 to 0.01 | cytotoxic activity against KG-1 and NCI-H1155 cancer cells (in words) (Cancer cells (KG-1); R1 bicyclic heteroaryl compared to monocyclic aryl (comparative substance) or heteroaryl (Compounds 37 and 38)): more potent cytotoxic activity; degradation of GSPT1 protein (GSPT1 protein): selectively promote the degradation of GSPT1 protein
2 | O=C1CCC(N2Cc3cc(CNC(=O)c4n[nH]c5ccc(Cl)cc45)ccc3C2=O)C(=O)N1 (centres unmarked) [Compound 8, 5-Chloro-N-((2-(2,6-dioxopiperidin-3-yl)-1-oxoisoindolin-5-yl)methyl)-1H-indazole-3-carboxamide] | 0.01 to 1 | 
3 | Cc1cnc(C(=O)NCc2ccc3c(c2)CN(C2CCC(=O)NC2=O)C3=O)cc1-c1ccccc1 (centres unmarked) [Compound 45, N-((2-(2,6-Dioxopiperidin-3-yl)-1-oxoisoindolin-5-yl)methyl)-5-methyl-4-phenylpicolinamide] | 0.0001 to 0.01 | 
4 | O=C1CCC(N2Cc3cc(CNC(=O)c4cnc5ccccc5n4)ccc3C2=O)C(=O)N1 (centres unmarked) [Comparative Compound 2, N-((2-(2,6-Dioxopiperidin-3-yl)-1-oxoisoindolin-5-yl)methyl)quinoxaline-2-carboxamide, reference compound] | 10 to 50 | 
5 | O=C1CCC(N2Cc3cc(CNC(=O)c4cn(-c5cccc(Cl)c5)nn4)ccc3C2=O)C(=O)N1 (centres unmarked) [Compound 15, 1-(3-chlorophenyl)-N-((2-(2,6-dioxopiperidin-3-yl)-1-oxoisoindolin-5-yl)methyl)-1H-1,2,3-triazole-4-carboxamide] | 0.0001 to 0.01 | 
6 | Cc1c(C(=O)NCc2ccc3c(c2)CN(C2CCC(=O)NC2=O)C3=O)nn(Cc2ccccc2)c1-c1cccc(Cl)c1 (centres unmarked) [Compound 21, 1-Benzyl-5-(3-chlorophenyl)-N-((2-(2,6-dioxopiperidin-3-yl)-1-oxoisoindolin-5-yl)methyl)-4-methyl-1H-pyrazole-3-carboxamide] | 0.0001 to 0.01 | 
7 | Cn1nc(C(=O)NCc2ccc3c(c2)CN(C2CCC(=O)NC2=O)C3=O)cc1-c1ccccc1 (centres unmarked) [Compound 23, N-((2-(2,6-Dioxopiperidin-3-yl)-1-oxoisoindolin-5-yl)methyl)-1-methyl-5-phenyl-1H-pyrazole-3-carboxamide] | 0.0001 to 0.01 | activity (in words) (Cancer cells (KG-1); monocyclic heteroaryl R1 and aryl R2 compared to bicyclic heteroaryl R1 (Compounds 8, 9, and 26)): significantly more potent activity
8 | O=C1CCC(N2Cc3cc(CNC(=O)c4n[nH]c5cc(Cl)c(Cl)cc45)ccc3C2=O)C(=O)N1 (centres unmarked) [Compound 4, 5,6-Dichloro-N-((2-(2,6-dioxopiperidin-3-yl)-1-oxoisoindolin-5-yl)methyl)-1H-indazole-3-carboxamide] | 0.0001 to 0.01 | 
9 | O=C1CCC(N2Cc3cc(CNC(=O)c4c[nH]c5cc(Cl)ccc45)ccc3C2=O)C(=O)N1 (centres unmarked) [Compound 6, 6-chloro-N-((2-(2,6-dioxopiperidin-3-yl)-1-oxoisoindolin-5-yl)methyl)-1H-indole-3-carboxamide] | 0.01 to 1 | 
10 | O=C1CCC(N2Cc3cc(CNC(=O)c4n[nH]c5ccccc45)ccc3C2=O)C(=O)N1 (centres unmarked) [Compound 34, N-((2-(2,6-Dioxopiperidin-3-yl)-1-oxoisoindolin-5-yl)methyl)-1H-indazole-3-carboxamide] | 0.01 to 1 | 
11 | O=C1CCC(N2Cc3cc(CNC(=O)c4cc(-c5cccc(Cl)c5)on4)ccc3C2=O)C(=O)N1 (centres unmarked) [Compound 19, 5-(3-Chlorophenyl)-N-((2-(2,6-dioxopiperidin-3-yl)-1-oxoisoindolin-5-yl)methyl)isoxazole-3-carboxamide] | 0.0001 to 0.01 | 
